Assay results published in US8980911B2, “Heterocyclic compounds as protein kinase inhibitors” (Daiichi Sankyo Company, Limited, priority 2011, dated 2015).
pIC50: −log10 of the molar value.

How the values were obtained:
Assay type in all cases: biochemical
JAK2 = target: T1, JAK2 (Homo sapiens, UniProt O60674); experiment: In vitro enzyme assay (cell-free HTRF kinase assay), JAK2; settings: catalytic domain, His-tag; ATP 10 μM, SRCtide 25 nM, reaction 30 min
T1 construct: All enzymes only contain the catalytic domain; His (N); purchased Carna Bioscience, Inc; host or cells: baculovirus expression system
T1 sequence (O60674 849-1124 limits assumed): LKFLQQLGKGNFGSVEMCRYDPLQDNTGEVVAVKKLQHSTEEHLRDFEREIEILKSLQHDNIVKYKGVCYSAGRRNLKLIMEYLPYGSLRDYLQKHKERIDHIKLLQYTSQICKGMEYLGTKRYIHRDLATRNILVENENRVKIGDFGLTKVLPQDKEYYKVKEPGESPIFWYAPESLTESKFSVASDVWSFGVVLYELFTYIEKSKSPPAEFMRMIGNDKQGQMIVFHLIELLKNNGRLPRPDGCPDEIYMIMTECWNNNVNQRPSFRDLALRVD
Procedure: (§1) Kinase buffer [50 mM HEPES (pH 7.5), 1 mM EGTA, 10 mM MgCl2, 2 mM DTT and 0.01% Tween-20) was prepared and dilutions of a compound of formula (I) and other reagents were subsequently made in it. Two times concentrated compound of formula (I) solution: A compound of formula (I) was diluted to 100-fold final concentration in DMSO, followed by 50-fold dilution with Kinase buffer (1% DMSO final concentration). Four times concentrated Substrate/ATP mix solution: Biotin-SRCtide and ATP were diluted to 4-fold final concentration in Kinase buffer. Biotin-SRCtide solution (purchased from Anaspec) was mixed with ATP solution (1:1). Four times concentrated Enzyme solution: JAK1 or JAK2 or JAK3 or TYK2 enzyme [Human baculo virus expressed JAK1, JAK2, JAK3 and TYK2 were purchased from Carna Bioscience, Inc. All enzymes only contain the catalytic domain. JAK1 (aa 850-1154) and TYK2 (aa 871-1187) are expressed with an N-terminally fused GST-tag, and JAK2 and JAK3 with an N-terminally fused His-tag] was diluted to 4-fold final concentration in Kinase buffer and always kept on ice. Detection buffer: LANCE detection buffer (10 times concentrated) was diluted 10-fold in H2O. Four times concentrated stop solution: EDTA was diluted to a concentration of 40 mM in detection buffer. Four times concentrated ULight/Eu-antibody (from Perkin Elmer) mix solution: ULight-Streptavidin was diluted to a concentration of 100 nM (25 ng/mL final concentrations) and Eu-anti-phospho-Tyrosine (PT66) (from Perkin Elmer) was diluted to a concentration of 8 nM (2 ng/mL final concentration) in detection buffer.
(§2) Cell-free in vitro kinase assay was performed in 384 well plates. Two times concentrated compound solution (5 μL) was pipetted into a HTS 384SV Small Volume Plate. Four times concentrated Substrate/ATP mix (2.5 μL) solution was added along with 4 times concentrated Enzyme solution (2.5 μL). Plate was covered with TopSeal-A and incubated at room temperature for indicated time (Table 3). Four times concentrated Stop solution (5 μL, 10 mM final concentration) was added and incubated for 5 minutes at room temperature. Four times concentrated ULight/Eu-antibody mix solution (5 μL) was added and again plate was covered with TopSeal and incubated overnight at 4° C. TopSeal was removed and HTRF signal was measured at 615 nm and […] (excitation at 320 or 340 nm) on Tecan M1000 Multi mode plate reader. Ratio (665 nm/615 nm)×10^4 was calculated and IC50 values were deduced from Graph-pad prism 4.2.

JAK1 = target: T2, JAK1 (Homo sapiens, UniProt P23458); experiment: In vitro enzyme assay (cell-free HTRF kinase assay), JAK1; settings: catalytic domain aa 850-1154, GST-tag; ATP 60 μM, SRCtide 400 nM, reaction 120 min
T2 construct: JAK1 (aa 850-1154) and TYK2 (aa 871-1187) are expressed with an N-terminally fused GST-tag; GST (N); purchased Carna Bioscience, Inc; host or cells: baculovirus expression system
T2 sequence (P23458 850-1154): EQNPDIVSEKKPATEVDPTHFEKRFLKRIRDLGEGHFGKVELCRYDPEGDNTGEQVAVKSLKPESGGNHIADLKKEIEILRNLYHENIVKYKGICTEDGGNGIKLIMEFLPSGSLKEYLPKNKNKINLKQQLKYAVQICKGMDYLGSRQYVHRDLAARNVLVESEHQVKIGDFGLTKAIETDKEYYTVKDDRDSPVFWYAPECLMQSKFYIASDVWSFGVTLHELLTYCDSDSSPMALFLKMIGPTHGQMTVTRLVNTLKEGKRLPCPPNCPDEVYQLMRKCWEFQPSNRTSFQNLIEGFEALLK
Procedure: as §1, §2

JAK3 = target: T3, JAK3 (Homo sapiens, UniProt P52333); experiment: In vitro enzyme assay (cell-free HTRF kinase assay), JAK3; settings: catalytic domain, His-tag; ATP 3 μM, SRCtide 100 nM, reaction 30 min
T3 construct: All enzymes only contain the catalytic domain; His (N); purchased Carna Bioscience, Inc; host or cells: baculovirus expression system
T3 sequence (P52333 822-1111 limits assumed): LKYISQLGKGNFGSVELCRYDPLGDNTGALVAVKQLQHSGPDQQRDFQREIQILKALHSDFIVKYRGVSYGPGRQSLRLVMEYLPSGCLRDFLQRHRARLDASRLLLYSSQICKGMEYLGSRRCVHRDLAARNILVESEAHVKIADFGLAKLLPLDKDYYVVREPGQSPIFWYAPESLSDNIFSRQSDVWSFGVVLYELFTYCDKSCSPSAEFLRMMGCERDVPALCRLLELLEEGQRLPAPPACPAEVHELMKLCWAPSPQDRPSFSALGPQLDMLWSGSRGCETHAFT
Procedure: as §1, §2

Compound | pIC50 (JAK2) | pIC50 (JAK1) | pIC50 (JAK3)
O=C(O)CNC(=O)c1cc(Cl)c(C(=O)c2c[nH]c3c(NC(=O)C4CC4)nccc23)c(Cl)c1 [Compound No. 36, N-[3,5-Dichloro-4-({7-[(cyclopropylcarbonyl)amino]-1H-pyrrolo[2,3-c]pyridin-3-yl}carbonyl)benzoyl]glycine] | > 7.00 | > 6.30 | > 7.30
Nc1cc(Cl)c(C(=O)c2c[nH]c3c(NC(=O)C4CC4)nccc23)c(Cl)c1 [Compound No. 26, N-[3-(4-Amino-2,6-dichlorobenzoyl)-1H-pyrrolo[2,3-c]pyridin-7-yl]cyclopropanecarboxamide] | > 6.30 | > 6.30 | > 7.00
N#Cc1cc(F)c(C(=O)c2c[nH]c3c(NC(=O)C4CC4)nccc23)c(F)c1 [Compound No. 51, N-[3-(4-Cyano-2,6-difluorobenzoyl)-1H-pyrrolo[2,3-c]pyridin-7-yl]cyclopropanecarboxamide] | > 7.00 | > 6.30 | > 7.30
N#Cc1cc(Cl)c(C(=O)n2ccc3c(NC(=O)C4CC4)nccc32)c(Cl)c1 [Compound No. 86, N-[1-(2,6-Dichloro-4-cyanobenzoyl)-1H-pyrrolo[3,2-c]pyridin-4-yl]cyclopropanecarboxamide] | > 6.30 | > 6.00 | > 6.30
O=C(NCC(O)CO)c1cc(Cl)c(C(=O)c2c[nH]c3c(NC(=O)C4CC4)nccc23)c(Cl)c1 (stereo not drawn) [Compound No. 32, 3,5-Dichloro-4-({7-[(cyclopropylcarbonyl)amino]-1H-pyrrolo[2,3-c]pyridin-3-yl}carbonyl)-N-(2,3-dihydroxypropyl)benzamide] | > 6.30 | > 6.30 | > 7.30
CCNC(=O)c1cc(F)c(C(=O)c2c[nH]c3c(NC(=O)C4CC4)nccc23)c(F)c1 [Compound No. 60, 4-({7-[(Cyclopropylcarbonyl)amino]-1H-pyrrolo[2,3-c]pyridin-3-yl}carbonyl)-N-ethyl-3,5-difluorobenzamide] | > 6.00 | > 6.30 | > 6.30
O=C(Nc1nccc2c1ccn2C(=O)c1c(Cl)cc(CNCCCO)cc1Cl)C1CC1 [Compound No. 167, N-[1-(2,6-Dichloro-4-{[(3-hydroxypropyl)amino]methyl}benzoyl)-1H-pyrrolo[3,2-c]pyridin-4-yl]cyclopropanecarboxamide] | > 6.30 | > 6.30 | > 6.30
Cc1noc(C)c1-c1cc(Cl)c(C(=O)n2ccc3c(NC(=O)C4CC4)nccc32)c(Cl)c1 [Compound No. 87, N-{1-[2,6-Dichloro-4-(3,5-dimethyl-1,2-oxazol-4-yl)benzoyl]-1H-pyrrolo[3,2-c]pyridin-4-yl}cyclopropanecarboxamide] | > 7.00 | > 6.30 | > 6.00
O=C(NC1CC1)c1cc(Cl)c(C(=O)c2c[nH]c3c(NC(=O)C4CC4)nccc23)c(Cl)c1 [Compound No. 54, 3,5-Dichloro-N-cyclopropyl-4-({7-[(cyclopropylcarbonyl)amino]-1H-pyrrolo[2,3-c]pyridin-3-yl}carbonyl)benzamide] | > 6.30 | > 6.30 | > 6.30
O=C(c1c(Cl)cc(-c2cncnc2)cc1Cl)c1c[nH]c2c(NC(=O)C3CC3)nccc12 [Compound No. 47, N-{3-[2,6-Dichloro-4-(pyrimidin-5-yl)benzoyl]-1H-pyrrolo[2,3-c]pyridin-7-yl}cyclopropanecarboxamide] | > 7.00 | > 6.00 | > 7.00
O=C(c1c(Cl)cc(Br)cc1Cl)c1c[nH]c2c(NC(=O)C3CC3)nccc12 [Compound No. 22, N-[3-(4-Bromo-2,6-dichlorobenzoyl)-1H-pyrrolo[2,3-c]pyridin-7-yl]cyclopropanecarboxamide] | > 6.00 | > 6.30 | > 6.30
O=C(NCCF)c1cc(Cl)c(C(=O)n2ccc3c(NC(=O)C4CC4)nccc32)c(Cl)c1 [Compound No. 154, 3,5-Dichloro-4-({4-[(cyclopropylcarbonyl)amino]-1H-pyrrolo[3,2-c]pyridin-1-yl}carbonyl)-N-(2-fluoroethyl)benzamide] | > 6.30 | > 6.00 | > 6.30
COCCNC(=O)c1cc(Cl)c(C(=O)c2c[nH]c3c(NC(=O)C4CC4)nccc23)c(Cl)c1 [Compound No. 16, 3,5-Dichloro-4-({7-[(cyclopropylcarbonyl)amino]-1H-pyrrolo[2,3-c]pyridin-3-yl}carbonyl)-N-(2-methoxyethyl)benzamide] | > 6.30 | > 6.00 | > 6.30
O=C(NCCN1CCCCC1)c1cc(Cl)c(C(=O)c2c[nH]c3c(NC(=O)C4CC4)nccc23)c(Cl)c1 [Compound No. 34, 3,5-Dichloro-4-({7-[(cyclopropylcarbonyl)amino]-1H-pyrrolo[2,3-c]pyridin-3-yl}carbonyl)-N[2-(piperidin-1-yl)ethyl]benzamide] | > 6.30 | > 6.30 | > 6.30
CCNC(=O)c1cc(Cl)c(C(=O)n2ccc3c(NC(=O)C4CC4)nccc32)c(Cl)c1 [Compound No. 93, 3,5-Dichloro-4-({4-[(cyclopropylcarbonyl)amino]-1H-pyrrolo[3,2-c]pyridin-1-yl}carbonyl)-N-ethylbenzamide] | > 6.00 | > 6.30 | > 6.00
O=C(NCCn1cccc1)c1cc(Cl)c(C(=O)n2ccc3c(NC(=O)C4CC4)nccc32)c(Cl)c1 [Compound No. 168, 3,5-Dichloro-4-({4-[(cyclopropylcarbonyl)amino]-1H-pyrrolo[3,2-c]pyridin-1-yl}carbonyl)-N-[2-(1H-pyrrol-1-yl)ethyl]benzamide] | > 6.00 | > 6.00 | > 6.30
O=C(NCCCO)c1cc(Cl)c(C(=O)c2c[nH]c3c(NC(=O)C4CC4)nccc23)c(Cl)c1 [Compound No. 30, 3,5-Dichloro-4-({7-[(cyclopropylcarbonyl)amino]-1H-pyrrolo[2,3-c]pyridin-3-yl}carbonyl)-N-(3-hydroxypropyl)benzamide] | > 6.30 | > 6.30 | > 6.30
CCOCCCNC(=O)c1cc(F)c(C(=O)c2c[nH]c3c(NC(=O)C4CC4)nccc23)c(F)c1 [Compound No. 64, 4-({7-[(Cyclopropylcarbonyl)amino]-1H-pyrrolo[2,3-c]pyridin-3-yl}carbonyl)-N-(3-ethoxypropyl)-3,5-difluorobenzamide] | > 6.00 | > 6.30 | > 6.00
CNC(=O)c1cc(Cl)c(C(=O)c2c[nH]c3c(NC(=O)C4CC4)nccc23)c(Cl)c1 [Compound No. 12, 3,5-Dichloro-4-({7-[(cyclopropylcarbonyl)amino]-1H-pyrrolo[2,3-c]pyridin-3-yl}carbonyl)-N-methylbenzamide] | > 6.30 | > 6.30 | > 7.00
O=C(Nc1cc(Cl)c(C(=O)n2ccc3c(NC(=O)C4CC4)nccc32)c(Cl)c1)NC1CC1 [Compound No. 113, N-(1-{2,6-Dichloro-4-[(cyclopropylcarbamoyl)amino]benzoyl}-1H-pyrrolo[3,2-c]pyridin-4-yl)cyclopropanecarboxamide] | > 6.30 | > 6.00 | > 6.30
N#Cc1cc(Cl)c(C(=O)n2ccc3cnccc32)c(Cl)c1 [Compound No. 95, 3,5-Dichloro-4-(1H-pyrrolo[3,2-c]pyridin-1-ylcarbonyl)benzonitrile] | > 6.30 | > 6.00 | > 6.30
CNCc1cc(Cl)c(C(=O)c2c[nH]c3c(NC(=O)C4CC4)nccc23)c(Cl)c1 [Compound No. 66, N-(3-{2,6-Dichloro-4-[(methylamino)methyl]benzoyl}-1H-pyrrolo[2,3-c]pyridin-7-yl)cyclopropanecarboxamide] | > 7.00 | > 7.00 | > 7.30
